Data taken from ChEMBL document CHEMBL2029274, “Structure and property based design, synthesis and biological evaluation of γ-lactam based HDAC inhibitors: part II” (Bioorg Med Chem Lett, 2012).

Columns and labels:
ACHN = test: Antiproliferative activity against human ACHN cells; type: functional
PC-3 = test: Antiproliferative activity against human PC3 cells; type: functional
NCI-H23 = test: Antiproliferative activity against human NCI-H23 cells; type: functional
[1] = Inhibition of HDAC by fluorescence assay
HCT-15 = test: Antiproliferative activity against human HCT15 cells; type: functional
MDA-MB-231 = test: Antiproliferative activity against human MDA-MB-231 cells; type: functional
[2] = Chemical stability in buffer assessed as compound remaining at 1 uM after 30 mins; type: physicochemical; settings: read-out: Stability
NUGC-3 = test: Antiproliferative activity against human NUGC3 cells; type: functional
[3] = Metabolic stability in mouse liver microsomes assessed as compound remaining at 1 uM after 30 mins in the presence of NADPH; type: ADME, Microsome; settings: read-out: Stability
[4] = Metabolic stability in mouse liver microsomes assessed as compound remaining at 1 uM after 30 mins in the absence of NADPH; type: ADME, Microsome; settings: read-out: Stability

Row | Compound | GI50 (ACHN) [µM] | GI50 (PC-3) [µM] | GI50 (NCI-H23) [µM] | IC50 [1] [µM] | GI50 (HCT-15) [µM] | GI50 (MDA-MB-231) [µM] | remaining at 0.5 h, 1 µM [2] [%] | remaining at 0.5 h, 1 µM [3] [%] | remaining at 0.5 h, 1 µM [4] [%] | GI50 (NUGC-3) [µM]
1 | O=C(CCC1=CCN(Cc2ccccc2)C1=O)NO | 1.08 | 4.43 | 4.29 | 0.12 | 5.37 | 0.99 |  |  |  | 
2 | COc1ccc(CCN2CC=C(CCC(=O)NO)C2=O)cc1 | 2.38 | 3.17 | 4.02 | 0.19 | > 10 | 1.08 | 102 | 98.3 | 92 | 1.42
3 | O=C(CCC1=CCN(CCc2cccc(C(F)(F)F)c2)C1=O)NO | 1.17 | 2.77 | 1.11 | 0.12 | 6.01 | 2.17 |  |  |  | 0.92
4 | O=C1CC2(CCCC2)CC(=O)N1CCCCN1CCN(c2ncccn2)CC1 [BUSPIRONE] |  |  |  |  |  |  | 108 | 106 | 0.1 | 
5 | O=C(CCC1=CCN(Cc2ccc(C(F)(F)F)cc2)C1=O)NO | 4.29 | 4.36 | 6.64 | 0.26 | 4.54 | 3.07 |  |  |  | 3.23
6 | O=C(CCC1=CCN(CCc2ccccc2)C1=O)NO |  |  |  | 0.12 |  | 0.99 | 96.7 | 82.9 | 85.5 | 
7 | O=C(CCC1=CCN(CCc2ccc(C(F)(F)F)cc2)C1=O)NO | 2.48 | 2.38 | 1.12 | 0.07 | 2.2 | 1.17 | 102 | 75.9 | 73.9 | 1.08
8 | COc1ccc(CN2CC=C(CCC(=O)NO)C2=O)cc1 | 2.48 | 3.12 | 1.64 | 0.45 | 1.72 | 1.63 |  |  |  | 1.11
9 | O=C(CCC1=CCN(Cc2cccc(C(F)(F)F)c2)C1=O)NO | 0.67 | 0.88 | 0.68 | 0.12 | 0.54 | 0.22 |  |  |  | 0.16
10 | COc1cccc(CN2CC=C(CCC(=O)NO)C2=O)c1 | 4.43 | 3.89 | 1.97 | 0.38 | 2.82 | 1.77 |  |  |  | 1.75

Further lines, with some results ahead:

Row | GI50 (ACHN) [µM] | GI50 (PC-3) [µM] | GI50 (NCI-H23) [µM] | IC50 [1] [µM] | GI50 (HCT-15) [µM] | GI50 (MDA-MB-231) [µM] | remaining at 0.5 h, 1 µM [2] [%] | remaining at 0.5 h, 1 µM [3] [%] | remaining at 0.5 h, 1 µM [4] [%] | Compound | GI50 (NUGC-3) [µM]
11 | 2.53 | 3.51 | 4.49 | 0.13 | > 10 | 1.5 |  |  |  | COc1ccccc1CCCN1CC=C(CCC(=O)NO)C1=O | 2.02
12 | 2.53 | 3.51 | 4.49 | 0.13 | > 10 | 1.5 |  |  |  | COc1ccccc1CCN1CC=C(CCC(=O)NO)C1=O | 2.02
13 | > 10 | 3.56 | 6.13 | > 10 | > 10 | 6.03 |  |  |  | COc1ccccc1CN1CC=C(CCC(=O)NO)C1=O | > 10
14 | 2.48 | 2.59 | 1.17 | 0.16 | > 10 | 1.88 |  |  |  | COc1cccc(CCN2CC=C(CCC(=O)NO)C2=O)c1 | 3.93
15 | 2.48 | 2.59 | 1.17 | 0.16 | > 10 | 1.88 |  |  |  | COc1cccc(CCCN2CC=C(CCC(=O)NO)C2=O)c1 | 3.93
16 | 4.75 | 7 | 2.51 | 0.27 | > 10 | 2.56 |  |  |  | COc1ccc(CCCN2CC=C(CCC(=O)NO)C2=O)cc1 | 5.48
